Assay results taken from patent publication US20250228832A1, “METHODS FOR TREATING DISORDERS AMELIORATED BY MUSCARINIC RECEPTOR ACTIVATION” (KARUNA THERAPEUTICS, INC., priority 2022, published 2025).
Where two headings read alike, the source gives them in different places.

Tests used:
human M1 receptor = target: T1, human M1 receptor (Homo sapiens, UniProt P11229); experiment: HTRF IP-One curve shift assay, M1; assay type: cell-based
T1 construct: expressed in transfected cells
T1 sequence (P11229 1-460): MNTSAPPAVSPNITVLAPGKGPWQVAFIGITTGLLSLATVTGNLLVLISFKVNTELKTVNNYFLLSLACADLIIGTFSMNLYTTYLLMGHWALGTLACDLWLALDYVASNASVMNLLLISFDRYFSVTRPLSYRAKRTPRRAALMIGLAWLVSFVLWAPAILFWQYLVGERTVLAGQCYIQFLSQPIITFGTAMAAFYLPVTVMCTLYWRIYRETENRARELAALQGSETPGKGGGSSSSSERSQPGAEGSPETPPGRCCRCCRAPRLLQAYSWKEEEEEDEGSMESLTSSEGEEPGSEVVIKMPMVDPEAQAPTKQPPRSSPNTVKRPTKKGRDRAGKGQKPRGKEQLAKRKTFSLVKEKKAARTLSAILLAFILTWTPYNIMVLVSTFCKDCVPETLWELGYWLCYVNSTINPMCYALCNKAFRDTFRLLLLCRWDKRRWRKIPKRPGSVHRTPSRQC
Procedure: (§1) HTRF IP-One assays were performed using frozen cell aliquots prepared from CHO-K1 cell lines stably expressing human M1, M3, or M5 receptors. Cells were frozen following typical cell freezing protocols. […] Dissociated cells were quenched in full media and collected by centrifugation at 290×g for 5 min. […] 1 mL aliquots of cells were dispensed into cryovial tubes and frozen in a controlled rate cryo-freezer container at −80° C. Cells were stored at −80° C. (or in liquid nitrogen if stored for at least six months) until the day of the assay.
(§2) On the day before the assay, frozen cells were rapidly thawed in a 37° C. water bath, brought up in 20 mL of full media, and collected via centrifugation at 290×g for 5 min. […] Next, […] of cells (10,000 cells/well) were dispensed into 384-well coming plates in triplicate. Cells were incubated overnight in a 37° C., 5% CO2 cell incubator.
(§3) Then, 2 μL of test compounds were added to the cells and incubated for 10 min at 37° C. in a 5% CO2 cell incubator. Next, 2 μL of diluted agonists serially diluted in assay buffer at 7× final assay concentration was added to assay plates. Finally, assay plates were incubated for two hours at 37° C. in a 5% CO2 cell incubator.
(§4) Six μL of IP-1 detection reagents (IP-One Gq HTRF kit, Cisbio Cat #62IPAPEJ) were dispensed to the cells. First, the plates were incubated for two hours at room temperature (IP-One detection reagents were made according to Cisbio protocol). Then, plates were read on an Envision plate reader following the Cisbio guidelines.
(§5) Raw data for all assays was transmitted directly from plate readers into the Beacon database for processing. All assay plates contained positive and negative control wells for data normalization and scaling. […] All control wells contained DMSO at a final assay concentration that matched the test compound wells.
(§6) Counts from the standard curve wells were used to generate a sigmoidal standard curve, which was used to transform the raw counts from each well on the plate (scaling control wells and compound wells) into a pmol/well IP1 value.

human M5 receptor = target: T2, human M5 receptor (Homo sapiens, UniProt P08912); experiment: HTRF IP-One curve shift assay, M5; assay type: cell-based
T2 construct: expressed in transfected cells
T2 sequence (P08912 1-532): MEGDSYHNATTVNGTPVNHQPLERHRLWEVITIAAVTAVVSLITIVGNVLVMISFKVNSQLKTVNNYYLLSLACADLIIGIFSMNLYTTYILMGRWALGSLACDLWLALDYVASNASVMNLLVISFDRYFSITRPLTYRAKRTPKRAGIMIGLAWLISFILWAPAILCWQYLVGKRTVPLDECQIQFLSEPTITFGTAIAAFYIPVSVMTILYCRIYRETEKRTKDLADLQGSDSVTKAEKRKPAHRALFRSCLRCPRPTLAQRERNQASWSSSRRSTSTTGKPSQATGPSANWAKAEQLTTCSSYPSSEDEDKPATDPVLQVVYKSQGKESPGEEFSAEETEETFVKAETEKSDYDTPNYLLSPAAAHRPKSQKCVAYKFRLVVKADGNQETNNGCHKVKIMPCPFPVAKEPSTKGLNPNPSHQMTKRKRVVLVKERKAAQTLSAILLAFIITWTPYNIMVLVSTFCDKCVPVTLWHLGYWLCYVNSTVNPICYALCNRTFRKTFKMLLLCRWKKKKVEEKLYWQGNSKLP
Procedure: as §1, §2, §3, §4, §5, §6

[1] = 26-week study of Alzheimer's disease; cited from earlier work
[2] = 25-75 mg TID, 75-225 mg TDD; cited from earlier work
[3] = M5, Emraclidine concentration 0 nM
[4] = M5, Emraclidine concentration 41.2 nM, read-out: Emax
[5] = M5, Emraclidine concentration 123 nM, read-out: Emax
[6] = M5, Emraclidine concentration 370 nM, read-out: Emax
[7] = M5, Emraclidine concentration 1110 nM, read-out: Emax
[8] = M5, Emraclidine concentration 3330 nM, read-out: Emax
[9] = M5, Emraclidine concentration […], read-out: Emax
[10] = M5, MK-4710 concentration 41.2 nM, read-out: Emax
[11] = M5, MK-4710 concentration 123 nM, read-out: Emax
[12] = M5, MK-4710 concentration 370 nM, read-out: Emax
[13] = M5, MK-4710 concentration 1110 nM, read-out: Emax
[14] = M5, MK-4710 concentration 3330 nM, read-out: Emax

What does the source list for `CCCCCOc1nsnc1C1=CCCCN1C` [KTX-517, 3-(1-methyl-1,4,5,6-tetrahydropyridin-2-yl)-4-(pentyloxy)-1,2,5-thiadiazole]?
EC50 (human M1 receptor; Emraclidine concentration 0 nM): 7 nM; Emax (human M1 receptor; Emraclidine concentration 0 nM): 61.6%; Emax (human M1 receptor; Emraclidine concentration 41.2 nM, read-out: Emax): 65.6%; Emax (human M1 receptor; Emraclidine concentration 123 nM, read-out: Emax): 66.5%; Emax at […] (human M1 receptor; Emraclidine concentration 370 nM): 71.3%; Emax (human M1 receptor; Emraclidine concentration 1110 nM, read-out: Emax): 72.8%; Emax (human M1 receptor; Emraclidine concentration 3330 nM, read-out: Emax): 79%; Emax at […] (human M1 receptor; Emraclidine concentration […]): 61%; α (cooperativity, affinity shift) (human M1 receptor; M4 PAM Emraclidine): 11.3; β (cooperativity, efficacy shift) (human M1 receptor; M4 PAM Emraclidine): 2.2; τ (agonist pharmacology) (human M1 receptor; M4 PAM Emraclidine): 0.0; α (cooperativity, affinity shift) (human M1 receptor; M4 PAM MK-4710): 3.5; β (cooperativity, efficacy shift) (human M1 receptor; M4 PAM MK-4710): 0.6; τ (agonist pharmacology) (human M1 receptor; M4 PAM MK-4710): 0.0; EC50 (human M1 receptor; MK-4710 concentration 0 nM): 8.4 nM; Emax (human M1 receptor; MK-4710 concentration 41.2 nM, read-out: Emax): 81.5%; Emax (human M1 receptor; MK-4710 concentration 123 nM, read-out: Emax): 79.6%; Emax at […] (human M1 receptor; MK-4710 concentration 370 nM): 80.9%; Emax (human M1 receptor; MK-4710 concentration 1110 nM, read-out: Emax): 86.1%; Emax (human M1 receptor; MK-4710 concentration 3330 nM, read-out: Emax): 85.8%; Emax at […] (human M1 receptor; MK-4710 concentration […]): 77.8%; EC50 (human M5 receptor; [3]): 121 nM; Emax (human M5 receptor; [3]): 41.68%; EC50 (human M5 receptor; M5, Emraclidine concentration 41.2 nM): 110 nM; Emax (human M5 receptor; [4]): 45.4%; EC50 (human M5 receptor; M5, Emraclidine concentration 123 nM): 118 nM; Emax (human M5 receptor; [5]): 62.7%; EC50 (human M5 receptor; M5, Emraclidine concentration 370 nM): 161 nM; Emax at […] (human M5 receptor; [6]): 62.4%; EC50 (human M5 receptor; M5, Emraclidine concentration 1110 nM): 243 nM; Emax (human M5 receptor; [7]): 69.3%; EC50 (human M5 receptor; M5, Emraclidine concentration 3330 nM): 153 nM; Emax (human M5 receptor; [8]): 72%; EC50 (human M5 receptor; M5, Emraclidine concentration […]): 111 nM; Emax at […] (human M5 receptor; [9]): 44.1%; α (cooperativity, affinity shift) (human M5 receptor; M5, M4 PAM Emraclidine): 1.0; β (cooperativity, efficacy shift) (human M5 receptor; M5, M4 PAM Emraclidine): 4.5; τ (agonist pharmacology) (human M5 receptor; M5, M4 PAM Emraclidine): 0.1; α (cooperativity, affinity shift) (human M5 receptor; M5, M4 PAM MK-4710): 2.2; β (cooperativity, efficacy shift) (human M5 receptor; M5, M4 PAM MK-4710): 1.9; τ (agonist pharmacology) (human M5 receptor; M5, M4 PAM MK-4710): 0.0; EC50 (human M5 receptor; M5, MK-4710 concentration 0 nM): 168 nM; Emax (human M5 receptor; M5, MK-4710 concentration 0 nM): 53.95%; Emax (human M5 receptor; [10]): 62.5%; Emax (human M5 receptor; [11]): 65.7%; Emax at […] (human M5 receptor; [12]): 68%; Emax (human M5 receptor; [13]): 69.6%; Emax (human M5 receptor; [14]): 82.2%; Emax at […] (human M5 receptor; M5, MK-4710 concentration […], read-out: Emax): 54.9%

For `CCCCCCOc1nsnc1C1=CCCN(C)C1` [xanomeline, reference compound], which dropout rate [1] is on record?
Its dropout rate is 56%.

And the Emax at […] (human M5 receptor)?
Its Emax at […] is 80%.

What about the Emax (human M5 receptor; [3]) of the same compound?
Its Emax is 81.14%.

And the Emax (human M5 receptor; [4])?
The Emax was 78.5%.

And the Emax (human M5 receptor; [5])?
Its Emax is 84.2%.

What about the Emax at […] (human M5 receptor; [6]) of the same compound?
Its Emax at […] is 89%.

What about the Emax (human M5 receptor; [7]) of the same compound?
The Emax was 81.9%.

And the Emax (human M5 receptor; [8])?
The Emax was 79.5%.

And the Emax at […] (human M5 receptor; [9])?
The Emax at […] was 79.4%.

What about the “τ (agonist pharmacology)” value (human M5 receptor; M5, M4 PAM Emraclidine) of the same compound?
The value was 0.1.

And the “τ (agonist pharmacology)” value (human M5 receptor; M5, M4 PAM MK-4710)?
Its value is 0.0.

What about the Emax (human M5 receptor; M5, MK-4710 concentration 0 nM) of the same compound?
Its Emax is 77.91%.

And the Emax (human M5 receptor; [10])?
The Emax was 87%.

What about the Emax (human M5 receptor; [11]) of the same compound?
The Emax was 86.9%.

And the Emax at […] (human M5 receptor; [12])?
The Emax at […] was 92.9%.

And the Emax (human M5 receptor; [13])?
The Emax was 78.6%.

What about the Emax (human M5 receptor; [14]) of the same compound?
Its Emax is 83%.

And the “positive (psychosis), negative, and cognitive symptoms of schizophrenia” value [2]?
The value was “improved”.
